In US3966957A, “Method for controlling emesis with N-(1-substituted-3-pyrrolidinyl)benzamides and thiobenzamides” (A. H. Robins Company, Incorporated, priority 1974, dated 1976):

Legend:
[1] = system: apomorphine-induced emesis; assay: Reduction of apomorphine-induced emesis in dogs, subcutaneous administration; assay type: in vivo, dog; conditions: for ED50: Canis lupus familiaris, sc, read-out: ED50, Anti-Emetic Effect of Subcutaneous Administration
Procedure: (§1) The anti-emetic properties of the compounds of Formulae I and II were established using a modification of the methods of Chen and Ensor, J. Pharmac. Exp. Ther. 98: 245-250 (1950) and of Leonard et al, J. Pharmac. Exp. Ther. 154, 339-345 (1966). Drug activity was assessed by its ability to reduce the frequency of apomorphine-induced emesis in dogs. The dogs were prescreened for fairly constant emetic responses to the subcutaneous administration of 0.1 mg./kg. of apomorphine hydrochloride, and those which vomited five or more times in the 40-minute period after apomorphine administration were selected for drug studies.
(§2) Groups of three dogs were used in preliminary tests and for the determinations of time of peak drug effect. Dose response curves were usually obtained using four drug-treated groups; each group contained at least three dogs. The dogs were fed approximately 17 hours prior to a test. Drugs were administered and at suitable intervals the dogs received 0.1 mg/kg of apormorphine hydrochloride subcutaneously. Frequency of emesis was determined during the next 40 minutes and emesis was counted as the actual expulsion of stomach contents.
In oral studies, drugs were administered in gelatin capsules (controls received an empty capsule). In the subcutaneous studies, drugs were administered in distilled water and/or polyethylene glycol-300.
Dogs were re-used at intervals of not less than one week. The ED50 is the dose which reduces the frequency of emesis of drug treated dogs to a value 50% below that of controls. Mean frequency of emesis for each drug treated group was compared with a mean control value derived by pooling the prior control emetic frequencies for all dogs used on that test day. The difference is expressed as a percentage decrease relative to controls. The per cent decrease in mean frequency of emesis for each drug-treated group (ordinate) was plotted against log dose (abscissa) on semi-log graph sheets. The ED50 was calculated by the method of Goldstein (Biostatistics, An Introductory Test; Pages 156-161; The MacMillan Co., New York, 1964).
Three dogs selected as described above were injected subcutaneously with 5.0 mg./kg. (3.12 mg./kg. expressed as free base) of the test drug 4-amino-N-(1-cyclohexyl-3-pyrrolidinyl)-N-methyl-benzamide cyclohexane-sulfamate from compound Example 4. One hour later apormorphine hydrochloride was administered in doses of 0.1 mg./kg. subcutaneously. Complete blockage of emesis (-100%) was observed over the 40-minute period following administration of apomorphine hydrochloride. […] (0.27 mg./kg. expressed as free base) was established for subcutaneous administration of the test drug.
Using the technique described in the foregoing general procedure and pharmacology in Example 1 for subcutaneous evaluation of test drugs against apomorphine induced emesis, results for additional compounds were obtained as shown in Table 4.

[2] = system: apomorphine-induced emesis; assay: Reduction of apomorphine-induced emesis in dogs, oral administration; assay type: in vivo, dog
Procedure: as §1
as §2, with “Drugs were administered and at suitable intervals the dogs received 0.1 mg/kg of apormorphine hydrochloride subcutaneously.” left out, “contents. […]” for “contents.”
Dogs were re-used at intervals of not less than one week. […] The difference is expressed as a percentage decrease relative to controls. […] The ED50 was calculated by the method of Goldstein (Biostatistics, An Introductory Test; Pages 156-161; The MacMillan Co., New York, 1964). […]

catalepsy = assay: Catalepsy in rats (IP), modified Tedeschi procedure; assay type: in vivo, rat; conditions: IP administration in rats, as free base (Table 7)
Procedure: (§3) Drugs were blind tested with positive and negative controls. […] The modified procedure is as follows.
(§4) Groups of six rats are dosed (IP) with drugs in saline solution and tested hourly over a six hour period. A phenothiazine or non-phenothiazine reference standard is tested concomitantly as a positive control; negative controls receive only the saline vehicle. After administration the rats are positioned hourly with each foot on a No. 7 rubber stopper. A rat is considered cataleptic if it remains immobile on the stoppers for five seconds or longer at two or more consecutive hourly observation intervals.

[3] = as above; assay type: in vivo, rat; conditions: rat, in vivo; IP administration in rats; as free base (Table 7)
Procedure: as §3, §4

O=C(NC1CCN(c2ccccc2)C1)c1ccc([N+](=O)[O-])cc1 (stereo not drawn) [Example 3, N-(1-Phenyl-3-pyrrolidinyl)-4-nitrobenzamide]
reduction in emesis ([1]; dogs, subcutaneous, dose level of 5 mg./kg. (Table 4 footnote a)): 50%

CN(C(=O)c1ccc(N)cc1)C1CCN(C2CCCCC2)C1 (stereo not drawn) [Example 4, 4-Amino-N-(1-cyclohexyl-3-pyrrolidinyl)-N-methylbenzamide Cyclohexanesulfamate]
change in apomorphine induced emesis ([2]; oral 2.5 mg./kg. in capsules, 2 h before apomorphine 0.1 mg./kg. s.c.): -95% | change in frequency of apomorphine-induced emesis ([1]; subcutaneous 5.0 mg./kg. (3.12 mg./kg. as free base), 1 h before apomorphine 0.1 mg./kg. s.c., 40-minute observation, dogs): -100% | Catalepsy (As Free Base), ED50 or other: highest dose without catatonia (catalepsy): no catatonia to 125

CC(=O)Nc1ccc(C(=O)NC2CCN(C3CCCCC3)C2)cc1 (stereo not drawn) [Example 7, N-(1-Cyclohexyl-3-pyrrolidinyl)-4-acetamidobenzamide]
ED50 [1]: 2.4 mg/kg

O=C(NC1CCN(C2CCCCC2)C1)c1ccc(F)cc1 (stereo not drawn) [Example 10]
ED50 [1]: 0.15 mg/kg

O=C(NC1CCN(C2CCCCC2)C1)c1cc([N+](=O)[O-])cc([N+](=O)[O-])c1 (stereo not drawn) [Example 12]
ED50 [1]: 0.15 mg/kg

Nc1ccc(C(=O)NC2CCN(C3CCCCC3)C2)cc1 (stereo not drawn) [Example 23]
Catalepsy (As Free Base), percent of rats cataleptic (catalepsy; at 94.2 mg/kg): 33%

O=C(NC1CCN(C2CCCCC2)C1)c1ccccc1 (stereo not drawn) [Example 24]
reduction in emesis ([2]; oral, dose level of 5 mg./kg. (Table 5 footnote a)): 60%

O=C(NC1CCN(C2CCCCC2)C1)c1ccc([N+](=O)[O-])cc1 (stereo not drawn) [Example 25]
ED50 [3]: 28 mg/kg

CN(C(=O)c1ccc([N+](=O)[O-])cc1)C1CCN(C2CCCCC2)C1 (stereo not drawn) [Example 27]
Catalepsy (As Free Base), ED50 or other: highest dose without catatonia (catalepsy): no catatonia to 100 | lethal dose (catalepsy): 100 mg/kg
